The results in this text go back to publication PMC10487843, “Evaluation of Anticancer and Anti-Inflammatory Activities of Some Synthetic Rearranged Abietanes” (International Journal of Molecular Sciences, 2023).

The nature of data set [1]: RAW 264.7 cell viability (MTT). The class given is cell-based, murine. To be noted: mouse, RAW 264.7 monocyte/macrophage cells; RAW 264.7, MTT, 0–100 μg/mL; read-out: IC50 (cytotoxicity). Here is the method: To evaluate the cytotoxic effects of the synthesized abietanes (5, 7, 13, 17, and 19) on RAW 264.7 monocyte/macrophage murine cells and to establish sub-cytotoxic concentrations for anti-inflammatory testing, we conducted cell viability assays using the MTT method. Each compound was tested at increasing concentration levels (0–100 μg/mL), and the IC50 values were determined by interpolation in the sigmoidal cytotoxicity curves (Figure 8). […] Additionally, sub-cytotoxic concentrations corresponding to ¾ IC50, ½ IC50, and ¼ IC50 were determined and selected for subsequent anti-inflammatory assays, ensuring that the observed effects were specifically attributed to the anti-inflammatory properties of the compounds rather than cytotoxicity. The human colorectal adenocarcinoma cell line HT29 (ECACC no. 9172201; ATCC no. HTB-38), the human hepatocarcinoma cell line HepG2 (ECACC no. 85011430), the mouse melanoma cells B16–F10 (ATCC no. CRL-6475), and the murine monocyte/macrophage like RAW 264.7 cell line (ATCC no, TIB-71) were obtained from the cell bank of the University of Granada, Spain. The tumor cell lines were cultured in DMEM (Dulbecco’s modified Eagle’s medium) supplemented with 2 mM glutamine, 10% heat-inactivated FCS (fetal calf serum), and 50 μg/mL of gentamicin (for all cancer cell lines). The RAW 264.7 cell line was cultured in RPMI1640 medium, supplemented with 2 mM glutamine, 10% heat-inactivated FCS, and 50 μg/mL of gentamicin. All cell lines were incubated at 37 °C, in an atmosphere of 5% CO2 and 95% humidity. The culture media were changed every 48 h, and the confluent cultures were separated with a trypsin solution (0.25% EDTA). In all experiments, monolayer cells were grown to 80–90% confluence in sterile cell culture flasks. The effects of the compounds on the cell viability were established using the MTT method (Sigma, St. Louis, MO, USA). The cytotoxicity of the compounds was assessed by measuring the absorbance of MTT dye staining of metabolically competent cells. The cells were cultivated in 96-well plates at 6.0 × 10^3 cells/mL for the HT29 and RAW 264.7 cell lines, at 5.0 × 10^3 cells/mL for B16–F10 cells, and 15.0 × 10^3 cells/mL for the HepG2 cell line, with a final volume of 200 μL per well being incubated with the different products (0–100 μg/mL). After 72 h, 100 μL of MTT solution (0.5 mg/mL) in 50% of PBS and 50% of the medium was added to each well. Following incubation for 1.5 h, formazan was resuspended in 100 μL of DMSO, and each concentration was tested in triplicate. The cell viability relative to the untreated control cells was determined by measuring the absorbance at 570 nm using an ELISA plate reader (Tecan Sunrise MR20–301, TECAN, Grödig, Austria).

The test system of data set [2] is HT29 cells. Put plainly: Annexin V-FITC/PI flow cytometry apoptosis analysis. In kind it is cell-based, human. As to conditions: HT29, 72 h; for total apoptosis, % of cell population: control 9%. The text has this:
To further investigate the potential mechanisms underlying the cytotoxic and cytostatic effects of compounds 5 and 13 on HT29 cells, Annexin V–FITC/PI double staining along with […] cell sorter (FACS) cytometry analysis was employed for determinate apoptosis induction. This assay allowed for the distinction of different cell populations, including normal cells (Annexin V− PI−), early apoptotic cells (Annexin V+ PI−), late apoptotic cells (Annexin V+ PI+), and necrotic cells (Annexin V− PI+).
These assays on the HT29 cell line were conducted 72 h after treatment with the selected rearranged abietanes at their corresponding IC50 and IC80 concentrations.
Flow cytometry was used to detect annexin V-FICT and PI double staining, to quantify the pro-apoptotic impact of compounds 5 and 13. Apoptosis was assessed through flow cytometry using a FACScan flow cytometer (Coulter Corporation, Hialeah, FL, USA). In this assay, 5 × 10^4 HT29 cells were plated in 24-well plates with 1.5 mL of medium and incubated for 24 h. The cells were then treated with the selected compounds in triplicate for 24, 48, and 72 h at their corresponding IC50 and IC80 concentrations. The cells were harvested and resuspended in a binding buffer (10 mM HEPES/NaOH with pH 7.4, 140 mM NaCl, and 2.5 mM CaCl2). Subsequently, Annexin V-FITC conjugate (1 µg/mL) was added and incubated for 15 min in the dark at room temperature. The cells were stained with 5 µL of 1 mg/mL PI solution before analysis. Approximately 10 × 10^3 cells were analyzed in each experiment; the experiments were performed twice, each with three replications per assay.

Converted amounts (≈) assume the structure as drawn.

Take `CC(C)C1=CC2=C(C(=O)C1=O)C1=CC(=O)CC(C)(C)[C@@]1(C)C=C2` [Compound 5, Pygmaeocin B]: the half-maximal inhibitory concentration (IC50) (in general, the concentration that inhibits the measured activity by half) at 72 h in data set [1] was 0.14 ± 0.09 µg/mL (≈ 0.451 µM). In data set [2] (IC50 concentration), the “early apoptosis, % of cell population” value stood at 5%; the “late apoptosis, % of cell population” value came out at 17%; the “total apoptosis, % of cell population” value came out at 22%. Further, the “percentage of necrotic cells” value in data set [2] (IC50 concentration, control 3%) is on record as 15%. In addition, in data set [2] (IC80 concentration), the “early apoptosis, % of cell population” value stood at 12%; the “late apoptosis, % of cell population” value was 23%; the “total apoptosis, % of cell population” value worked out at 35%.

With `CC(C)C1=CC2=C(C(=O)C1=O)[C@@]1(C)CCCC(C)(C)[C@@H]1CC2` [Compound 13], the IC50 at 72 h in data set [1] was determined as 8.18 ± 1.86 µg/mL (≈ 27.2 µM). For the same molecule, in data set [2] (IC50 concentration), the “early apoptosis, % of cell population” value was 6%; the “late apoptosis, % of cell population” value was 12%; the “total apoptosis, % of cell population” value was 18%. In addition, in data set [2] (IC80 concentration), the “early apoptosis, % of cell population” value amounted to 7%; the “late apoptosis, % of cell population” value was determined as 14%; the “total apoptosis, % of cell population” value amounted to 21%.
